Experimental data taken from patent US20250353845A1, “THYROID HORMONE BETA RECEPTOR AGONIST, CRYSTAL FORM, PREPARATION METHOD AND USE” (KPC PHARMACEUTICALS, INC, priority 2022, published 2025).
Like-named read-outs stand apart in the source and are kept apart here.

Tests used:
[1] = Hygroscopicity of crystalline form A by dynamic vapor sorption (DVS); format: physicochemical; conditions: 25° C. and 80% RH
Method: Instrument model: TA Instruments Q5000 SA dynamic moisture adsorption instrument.
Test conditions: 1 mg to 10 mg sample was weighed and placed in a DVS sample tray for testing.
The detailed DVS parameters were as follows: temperature: 25° C., balance: dm/dt=0.01%/min for 15.00 min, drying: 90 min at 0% RH, RH (%) test gradient: 10% RH (%), test gradient range: 0%-80%-0%.
The hygroscopicity evaluation is classified as follows:
Experimental material: TA Instruments Q5000 SA dynamic moisture adsorption instrument
Experimental method: 1 mg to 10 mg of sample was weighted and placed in a DVS sample tray for testing.

[2] = Solid stability test of crystalline form A; format: physicochemical; conditions: open, 10 days
Excerpt: […] Samples in duplicate were placed under each condition, and the samples for XRPD detection and melting points were placed separately. Samples placed under different conditions were sampled for XRPD detection at the planned test end point, and the test results were compared with the initial test results at Day 0.

[3] = target: thyroid hormone receptor β (THR β) (Homo sapiens, UniProt P10828); experiment: In vitro enzyme activity test of thyroid receptor β (TR-FRET, binding of THRβ LBD with co-activating peptide SRC2-2); format: biochemical
Chain of thyroid hormone receptor β (THR β) (P19793 whole entry partner, other chains not shown, the tested form may be a part): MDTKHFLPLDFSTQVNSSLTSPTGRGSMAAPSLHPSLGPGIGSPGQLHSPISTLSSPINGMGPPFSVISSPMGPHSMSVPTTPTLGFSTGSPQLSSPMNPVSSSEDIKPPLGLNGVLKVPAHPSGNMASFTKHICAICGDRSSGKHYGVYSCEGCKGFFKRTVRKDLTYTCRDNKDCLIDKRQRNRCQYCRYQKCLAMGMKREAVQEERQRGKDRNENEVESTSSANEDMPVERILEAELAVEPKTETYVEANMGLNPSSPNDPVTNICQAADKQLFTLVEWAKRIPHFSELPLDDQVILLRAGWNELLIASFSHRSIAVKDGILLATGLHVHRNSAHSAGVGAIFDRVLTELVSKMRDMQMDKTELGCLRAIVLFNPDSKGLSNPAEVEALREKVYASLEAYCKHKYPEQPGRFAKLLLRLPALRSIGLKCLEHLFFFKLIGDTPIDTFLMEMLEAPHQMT
Method: Time-resolved fluorescence resonance energy transfer (TR-FRET) experimental method was used to evaluate the agonist activity in vitro of the compounds to be tested through the binding of thyroid hormone receptor β (THR β) with its co-activating peptide SRC2-2.
GST tag was fused to THR β ligand binding domain (THR β LBD), and its co-activating peptide SRC2-2 was biotinylated. The binding capacity of THR β LBD to SRC2-2 was determined by detecting the tightly bound Europium-labeled anti-GST antibody and Streptavidin labeled with D2 with TR-FRET.
1) the compounds to be tested were dissolved in DMSO to prepare a 30 mM stock solution that could be stored in a dryer at room temperature for three months. If it is stored for a long time, it will be placed in a refrigerator at −20° C.
The activity rate is calculated as follows: […]
Ratio valuepositive control: average value of the ratios of all positive control holes in the whole plate.
Ratio valuenegative control: average value of the ratios of all negative control holes in the whole plate.
The EC50 (half excited concentration) of the compound was obtained by using the following nonlinear fitting formula.
X: log value of compound concentration; Y: activity rate of compound.

[4] = Pharmacokinetic evaluation in rats (liver-blood ratio); format: in vivo, CD rats
Method: To determine the pharmacokinetic parameters of the compound represented by formula (I) in rats.
The animals were given the compound at a dose of 5 mg/kg at a concentration of 0.5 mg/mL. Animals were cross-collected for plasma samples at 2, 6 and 10 h after administration. The drug concentration in the plasma samples was determined by LC-MS/MS method, and the kinetic parameters of the test drugs obtained were found in Table 25: […]

[5] = target: T1, thyroid receptor β (THRβ) (Homo sapiens, UniProt P10828); experiment: Cytological activity test of thyroid receptor β (luciferase reporter gene in HEK293T cells); format: cell-based; conditions: read-out: EC50 of THR β in vitro cell activity
T1 construct: expressed in transfected cells; host or cells: HEK293T
T1 sequence (P10828 217-461 limits assumed): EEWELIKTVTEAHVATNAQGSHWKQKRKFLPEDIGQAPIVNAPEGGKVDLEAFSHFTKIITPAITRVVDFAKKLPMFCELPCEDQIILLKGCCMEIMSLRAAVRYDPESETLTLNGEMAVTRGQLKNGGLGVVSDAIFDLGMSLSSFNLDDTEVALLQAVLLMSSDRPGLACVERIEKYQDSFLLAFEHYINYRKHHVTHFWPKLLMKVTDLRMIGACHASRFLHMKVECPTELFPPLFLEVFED
Excerpt: In this study, the fluorescence reporter gene experiment method was used to evaluate the excitatory effects of the two compounds to be tested on THR β target.
PGL4.35 [luc2P/9XGAL4UAS/Hygro] contains nine GALA-UAS repeat sequences (upstream activation sequences). This sequence drives the transcription of luciferase reporter gene luc2P, in response to the binding of the fusion protein containing Gal4 DNA binding domain with the ligand binding domain of thyroid receptor β (THR β) in pBIND THRβ vector. Stimulation on THRβ by the test sample will lead to the increase of luminescence signal.
The positive compound was dissolved in DMSO to prepare a 5 mM stock solution, and then diluted to a 0.5 mM stock solution. All compounds were dissolved in DMSO and stored in a refrigerator at −20° C. […]
2) HEK293T cells were cultured according to ATCC standard, and the cells were tested in exponential growth period. […] The cells were collected and counted. […]
5) The Britelite plus detection reagent was placed at room temperature. […] Envision was used to detect the luminescence value.
6) Agonism percentage is calculated as follows:
[formula] • RLU: Resulting Luminescence • RLUpositive control: average value of luminescence of all positive control holes in the whole plate. • RLUnegative control: average value of luminescence of all negative control holes in the whole plate. […]

In the case of `C[C@@H]1CCc2c(Oc3c(Cl)cc(-n4nc(C#N)c(=O)[nH]c4=O)cc3Cl)ccc(=O)n21` [crystalline form A], the hygroscopicity classification [1] is reported as “slight hygroscopicity”, the “hygroscopic weight gain ΔW” value ([1]; DVS) is reported as 0.6% and the “Crystalline form (XRPD) after storage” value ([2]; 25° C./65% RH) is reported as “Crystalline form A”. For the same molecule, the “Crystalline form (XRPD) after storage” value ([2]; 25° C./85% RH) was “Crystalline form A”, the “Crystalline form (XRPD) after storage” value ([2]; 40° C./75% RH) was “Crystalline form A” and the “Crystalline form (XRPD) after storage” value ([2]; 50° C.) was “Crystalline form A”.
Molecule `C[C@@H]1CCc2c(Oc3c(Cl)cc(-n4nc(C#N)c(=O)[nH]c4=O)cc3Cl)ccc(=O)n21` [Compound represented by formula (I)] has an EC50 [3] of 46 nM, a Kp at 2 h ([4]; male, CD, liver/plasma, rat, PO, 5.0 mg/kg, 2 h, read-out: L/P concentration ratio) of 7.7 and a Kp at 6 h ([4]; male, CD, liver/plasma, rat, PO, 5.0 mg/kg, 6 h, read-out: L/P concentration ratio) of 22.1. The Kp at 10 h ([4]; male, CD, liver/plasma, rat, PO, 5.0 mg/kg, 10 h, read-out: L/P concentration ratio) was 23.6, the concentration at 2 h ([4]; male, CD, liver, rat, PO, 5.0 mg/kg, 2 h, read-out: Liver drug concentration L) was 1180 ng/g and the concentration at 6 h ([4]; male, CD, liver, rat, PO, 5.0 mg/kg, 6 h, read-out: Liver drug concentration L) was 746 ng/g. For the same molecule, the concentration at 10 h ([4]; male, CD, liver, rat, PO, 5.0 mg/kg, 10 h, read-out: Liver drug concentration L) was 238 ng/g, the concentration at 2 h ([4]; male, CD, plasma, rat, PO, 5.0 mg/kg, 2 h, read-out: Blood drug concentration P) was 153 ng/mL and the concentration at 6 h ([4]; male, CD, plasma, rat, PO, 5.0 mg/kg, 6 h, read-out: Blood drug concentration P) was 33.8 ng/mL. For the same molecule, the concentration at 10 h ([4]; male, CD, plasma, rat, PO, 5.0 mg/kg, 10 h, read-out: Blood drug concentration P) was 10.1 ng/mL, the half-life ([4]; male, CD, plasma, rat, PO, 5.0 mg/kg, read-out: T½ (converted)) was 3.7 h and the “liver targeting (conclusion)” value ([4]; rat, PO, 5.0 mg/kg) was “Conclusion: The blood drug concentration of the compound represented by formula (I) in rats was relatively low, and the liver drug concentration was relatively high, so the compound represented by formula (I) has good liver targeting”. For the same molecule, the blood drug concentration ([4]; rats) was “low”, the liver drug concentration ([4]; rats) was “relatively high” and the liver targeting ([4]; rats) was “good liver targeting properties”. For the same molecule, the EC50 [5] was 214 nM.
